“And” between values parts separate entries of the source, which are not always exact repeats. Equal values may be shown once. Where a name gives a salt, the structure may show the parent alone. Read-outs that look alike come from different tables or passages of the source.
What was measured:
[1] = system: rat peritoneal mast cells; experiment: Inhibition of histamine release from rat peritoneal mast cells, Procedure B; type: cell-based; conditions: Mast cell, 1 h; from rat peritoneal mast cells; sheep anti-rat IgE or ovalbumin; 60 min at 37° C.; read-out: In Vitro Inhibition of Histamine Release IC50 (μM) Procedure B
Description: B. Procedure for Determining Inhibition of Histamine Release from Rat Peritoneal Mast Cells
Harvest of Peritoneal Mast Cells: After the rats are sacrificed with ether, 20 ml of Minimum Essential Medium (MEM) containing 20 units/ml heparin is injected into the peritoneum. The abdomen is massaged for one minute and the lavage fluid collected. The peritoneal cells are centrifuged at 1800 rpm for 8 minutes in cold. After two washes with Tris A buffer, the cells are resuspended in Tris ACM buffer at 2-4×10^6 cells/ml.
Reaction mixture: The reaction is carried out in 12×75 mm plastic tubes at a total volume of 1.25 ml. The reaction mixture includes 0.5 ml (10-1000 μg) sheep anti-rat IgE or ovalbumin, 0.2 ml of the test compound in water at concentrations ranging from 10-1000 μM, 0.5 ml phosphatidylserine solution (20-60 μg to each tube), and 0.5 ml of cell suspension.
The concentration which causes a 50% inhibition (IC50) of histamine release is computed as in Part A.

[2] = system: guinea pig basophils; experiment: Inhibition of histamine release from guinea pig basophils, Procedure C; type: cell-based; conditions: Cavia porcellus, 1 h; from guinea pig basophils (ovalbumin-sensitized); 60 min at 37° C.; > = no response detected at highest dose indicated; read-out: In Vitro Inhibition of Histamine Release IC50 (μM) Procedure C
Description: C. Procedure for Determining Inhibition of Histamine Release from Guinea Pig Basophils
1. In Vivo Sensitization: Male Hartley guinea pigs (200-300 gm) are immunized on day 0 with two 0.05 ml intradermal injections of 200 μg ovalbumin. Sensitized basophils are available between days 13-25 post-sensitization. This mode of sensitization favors IgE response.
2. Separation of Leukocytes: The method of Lett-Brown et al., Int. Arch. Allergy, Appl. Immun. 64, 241 (1981) is used. Animals are anesthetized with ether and are bled via cardiac puncture, with plastic syringes containing sufficient EDTA to provide a final concentration of 10 mM.
One part of 3% gelatin in saline at 37° C. is mixed with 2 parts of blood in a 16×150 mm tube. The cells are allowed to sediment at a 30° angle for 45 minutes in a 37° C. water bath. The leukocyte-rich plasma is collected and centrifuged at 150×g for 30 minutes at room temperature. The pelleted cells are washed in Hepes-buffered saline (HG) containing 4 mM EDTA and resuspended in Hepes-buffered saline containing […] and Ca^++ (HGCM) at 4-5×10^6 cells/ml.
3. Reaction Mixture: The reaction is carried out in 12×75 mm plastic tubes and a total volume of 1.2 ml which includes 0.5 ml of antigen, 0.2 ml of drug solution at concentrations ranging from 10-1000 μM and 0.5 ml of prewashed cell suspension. The reaction mixture is incubated in a 37° C. shaking water bath for 60 minutes. Upon completion of the reaction, the tubes are centrifuged and the supernatants collected. The protein is removed from the supernatants by precipitation with 0.2 ml of 8% perchloric acid.
4. Histamine Assay: Histamine release is measured by the automated fluorometric method of Siraganian, supra. The concentration which causes a 50 percent inhibition of histamine release is computed as in Part A.

[3] = system: human leukocytes (basophils); experiment: Inhibition of IgE-mediated histamine release from human leukocytes (basophils), Procedure A; type: cell-based; conditions: for IC50: Leukocyte, 1 h, read-out: In Vitro Inhibition of Histamine Release IC50 (μM) Procedure A
Description: A. Procedure for Determining Inhibition of Histamine Release from Human Leukocytes (Basophils)
Separation of Leukocytes: A modification of the method of L. Lichtenstein and A. Osler, J. Exp. Med. 120, 507 (1964) is used. Heparinized human blood (80-100 ml) is mixed with 20 ml of saline (0.2%) containing 0.6 gm of dextrose and 1.2 gm of dextran in propylene centrifuge tubes. The mixture is kept at ambient temperature for 60-90 minutes to allow the separation of erythrocytes from the platelet-leukocyte-rich supernate. The supernate is removed and centrifuged for 8 minutes at 110 ×g in cold. The leukocyte pellet is washed twice with Tris buffer and finally suspended in 150-180 ml Tris-ACM buffer at 1-2 ×10^6 cells/ml.
Reaction Mixture: The reaction is carried out in 12×75 mm plastic tubes at a total volume of 1.23 ml. The reaction medium includes 0.05 ml rabbit anti-human IgE (the antigen), 0.2 ml of the test compound in water at concentrations ranging from 10-100 μM, and 1.0 ml of the leukocyte suspension. The reaction mixture is incubated in a 37° C. shaking water bath for 60 minutes. Upon completion of the reaction, the tubes are centrifuged and the supernatants collected. The protein is removed from the supernatants by precipitation with 0.2 ml of 8% perchloric acid.
Histamine Assay: Histamine release is measured by the automated fluorometric method of W. Siraganian and W. Hook in Chapter 102 of the Manual of Clinical Immunology, 2nd Edition, edited by R. Rose and H. Friedman, published by the American Society for Microbiology, Washington, D.C., 1980. Percent inhibition is calculated as follows: [formula]
The concentration which causes a 50 percent inhibition (IC50) of histamine release is interpolated from a plot of percent inhibition versus logarithm of drug concentration.

[4] = target: T1, histamine (H1) receptor (Cavia porcellus, UniProt P31389); experiment: Antagonism of histamine-induced contraction of isolated guinea pig ileum; type: tissue-based; conditions: histamine final concentration 0.2 μg/ml, 50% reduction of contractile response, read-out: Inhibition IC50 (μM) of histamine-induced contraction
T1 construct: contraction of isolated guinea pig ileum; from tissue; host or cells: isolated guinea pig ileum
From the text: Certain compounds of formula I inhibit in vitro the histamine-induced contraction of isolated guinea pig ileum and are useful in warm-blooded animals for antagonizing the action of histamine at the histamine (H1) receptor. Accordingly, these compounds can be employed in a conventional manner as antihistamine agents for the treatment of allergic disorders, for example allergic rhinitis, vasomotor rhinitis, allergic conjunctivitis, hay fever, urticaria, and food allergies.
The antagonism of the effects of histamine on the contraction of isolated guinea pig ileum by the compounds of formula I can be determined by the procedure of G. Possanza, A. Bauen, and P. Stewart, Int. Arch. Allergy Appl. Immunol., 49, 289 (1975). The degree of inhibition is determined as the difference between the contraction caused by histamine (final concentration 0.2 μg/ml) alone and that seen in the presence of both histamine and the test compound. The inhibitory activity of the test compound is expressed as that concentration of the compound which causes a 50% reduction of the contractile response (IC50).

[5] = from human basophils, rabbit anti-human IgE as antigen, 60 min at 37° C., > = no response detected at highest dose indicated

T1 sequence (P31389 whole entry): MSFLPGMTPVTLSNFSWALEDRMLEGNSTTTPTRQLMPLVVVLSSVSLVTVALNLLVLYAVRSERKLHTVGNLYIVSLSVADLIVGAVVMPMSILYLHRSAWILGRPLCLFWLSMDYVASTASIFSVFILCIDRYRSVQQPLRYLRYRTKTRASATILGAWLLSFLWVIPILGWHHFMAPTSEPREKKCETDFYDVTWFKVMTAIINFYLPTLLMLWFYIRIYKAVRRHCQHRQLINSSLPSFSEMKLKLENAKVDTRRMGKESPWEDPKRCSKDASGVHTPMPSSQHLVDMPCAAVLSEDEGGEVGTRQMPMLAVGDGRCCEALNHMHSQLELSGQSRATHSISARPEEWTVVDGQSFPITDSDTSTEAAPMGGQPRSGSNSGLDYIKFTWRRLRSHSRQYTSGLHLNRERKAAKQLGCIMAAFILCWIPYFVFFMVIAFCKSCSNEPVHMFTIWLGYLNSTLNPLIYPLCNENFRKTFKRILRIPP

IC50 [3, 5]	SMILES	other results
5 µM	SCCCN1CCN(CCc2ccc(Cl)cc2)CC1 [Example 25, 3-[4-(4-Chlorophenethyl)piperazin-1-yl]propanethiol dihydrochloride]	IC50 [1]: 4 µM; IC50 [2]: 5 µM
	COc1ccc(NC(=O)SCCCN2CCN(Cc3ccc(Cl)cc3)CC2)cc1 [Example 14, N-(4-Methoxyphenyl)-S-{3-[4-(4-chlorobenzyl)piperazin-1-yl]propyl}thiocarbamate dihydrochloride monohydrate]	IC50 [4]: 0.12 µM
	CNC(=O)SCCCN1CCN(Cc2ccc(Cl)cc2)CC1 [Example 4, N-Methyl-S-{3-[4-(4-chlorobenzyl)piperazin-1-yl]propyl}thiocarbamate dihydrochloride]	IC50 [4]: 0.19 µM; In Vitro Inhibition of Histamine Release IC50 (μM) Procedure A [3, 5]: Int.
	SCCCN1CCN(Cc2ccc(Cl)cc2)CC1 [Example 3, 3-[4-(4-Chlorobenzyl)piperazin-1-yl]propanethiol dihydrochloride]	IC50 ([3]; Homo sapiens): 4 µM
3 µM	O=C(Nc1ccccc1)SCCN1CCN(Cc2ccc(Cl)cc2)CC1 [Example 37, N-phenyl-S-{2-[4-(4-chlorobenzyl)piperazin-1-yl]ethyl}thiocarbamate dihydrochloride]	
58 µM	CC(C)(C)NC(=O)SCCCN1CCN(Cc2ccc(Cl)cc2)CC1 [Example 47, N-(t-Butyl)-S-{3-[4-(4-chlorobenzyl)piperazin-1-yl]propyl}thiocarbamate dihydrochloride sesquihydrate]	
> 1000 µM	CC1CN(Cc2ccc(Cl)cc2)C(C)CN1CCCSC(=O)Nc1ccccc1 (stereo not drawn) [Example 20, N-Phenyl-S-{3-[4-(4-chlorobenzyl)-2,5-dimethylpiperazin-1-yl]propyl}thiocarbamate dihydrochloride]	
67 µM	CC(c1ccccc1)N1CCN(CCCSC(=O)Nc2ccccc2)CC1 (stereo not drawn) [Example 22, N-Phenyl-S-{3-[4-(1-phenylethyl)piperazin-1-yl]propyl}thiocarbamate dihydrochloride dihydrate]	
310 µM	O=C(Nc1ccccc1)SCCCN1CCN(Cc2ccccc2)CC1 [Example 2, N-Phenyl-S-[3-(4-benzylpiperazin-1-yl)propyl]thiocarbamate dihydrochloride monohydrate]	
47 µM	O=C(Nc1ccc(Cl)cc1)SCCCN1CCN(Cc2ccc(Cl)cc2)CC1 [Example 10, N-(4-Chlorophenyl)-S-{3-[4-(4-chlorobenzyl)piperazin-1-yl]propyl}thiocarbamate dihydrochloride monohydrate]	
	SCCCN1CCN(Cc2ccccc2)CC1 [Example 1, 3-(4-Benzylpiperazin-1-yl)propanethiol dihydrochloride]	IC50 ([3]; Homo sapiens): 140 µM
140 µM	COc1cccc(NC(=O)SCCCN2CCN(Cc3ccc(Cl)cc3)CC2)c1 [Example 13, N-(3-Methoxyphenyl)-S-{3-[4-(4-chlorobenzyl)piperazin-1-yl]propyl}thiocarbamate dihydrochloride]	
760 µM	CCCCc1ccc(NC(=O)SCCCN2CCN(Cc3ccc(Cl)cc3)CC2)cc1 [Example 8, N-(4-n-Butylphenyl)-S-{3-[4-(4-chlorobenzyl)piperazin-1-yl]propyl}thiocarbamate dihydrochloride]	
12 µM	CCCCCCNC(=O)SCCCN1CCCN(Cc2ccc(Cl)cc2)CC1 [Example 46, N-(n-Hexyl)-S-{3-[4-(4-chlorobenzyl)homopiperazin-1-yl]propyl}thiocarbamatedihydrochloride]	
25 µM	O=C(Nc1ccccc1)SCCCN1CCN(CCc2ccc(Cl)cc2)CC1 [Example 26, N-Phenyl-S-{3-[4-(4-chlorophenethyl)piperazin-1-yl]propyl}thiocarbamate dihydrochloride monohydrate]	IC50 [4]: 0.06 µM
> 1000 µM	O=C(Nc1ccc(Cl)c(Cl)c1)SCCCN1CCN(Cc2ccc(Cl)cc2)CC1 [Example 11, N-(3,4-Dichlorophenyl)-S-{3-[4-(4-chlorobenzyl)piperazin-1-yl]propyl}thiocarbamate dihydrochloride]	
9 µM	COc1cc(NC(=O)SCCCN2CCN(CCc3ccc(Cl)cc3)CC2)cc(OC)c1OC [Example 29, N-(3,4,5-Trimethoxyphenyl)-S-{3-[4-(4-chlorophenethyl)piperazin-1-yl]propyl}thiocarbamate dihydrochloride]	IC50 [4]: 0.18 µM
30 µM	CCCCc1ccc(NC(=O)SCCCN2CCN(CCc3ccc(Cl)cc3)CC2)cc1 [Example 27, N-(4-n-Butylphenyl)-S-{3-[4-(4-chlorophenethyl)piperazin-1-yl]propyl}thiocarbamate dihydrochloride]	
> 300 µM	COc1ccccc1NC(=O)SCCCN1CCN(Cc2ccc(Cl)cc2)CC1 [Example 12, N-(2-Methoxyphenyl)-S-{3-[4-(4-chlorobenzyl)piperazin-1-yl]propyl}thiocarbamate dihydrochloride sesquihydrate]	
71 µM	CCCCCCNC(=O)SCCCN1CCN(Cc2ccc(Cl)cc2)CC1 [Example 40, N-(n-Hexyl)-S-{3-[4-(4-chlorobenzyl)piperazin-1-yl]propyl}thiocarbamate dihydrochloride]	
	CC(C)NC(=O)SCCCN1CCN(Cc2ccc(Cl)cc2)CC1 [Example 5, N-Isopropyl-S-{3-[4-(4-chlorobenzyl)piperazin-1-yl]propyl}thiocarbamate dihydrochloride]	IC50 [4]: 0.21 µM and 0.3 µM; In Vitro Inhibition of Histamine Release IC50 (μM) Procedure A [3, 5]: Int.
> 1000 µM	CCCCCCNC(=O)SCCCN1CCN(CC=Cc2ccccc2)CC1 [Example 44, N-(n-Hexyl)-S-[3-(4-cinnamylpiperazin-1-yl)propyl]thiocarbamate dihydrochloride]	
	Cc1ccc(CN2CCN(CCCS)CC2)cc1 [Example 17, 3-[4-(4-Methylbenzyl)piperazin-1-yl]propanethiol dihydrochloride]	IC50 ([3]; Homo sapiens): 24 µM
11 µM	O=C(Nc1ccc(F)cc1)SCCCN1CCN(Cc2ccc(Cl)cc2)CC1 [Example 9, N-(4-Fluorophenyl)-S-{3-[4-(4-chlorobenzyl)piperazin-1-yl]propyl}thiocarbamate dihydrochloride]	IC50 [4]: 0.12 µM
3 µM	SCCCN1CCCN(Cc2ccc(Cl)cc2)CC1 [Example 45, 3-[4-(4-Chlorobenzyl)homopiperazin-1-yl]propanethiol]	
13 µM	COc1ccc(NC(=O)SCCCN2CCN(CCCc3ccc(Cl)cc3)CC2)cc1 [Example 39, N-(4-Methoxyphenyl)-S-{3-[4-[3-(4-chlorophenyl)propyl]piperazin-1-yl]propyl]thiocarbamate dihydrochloride hemihydrate]	
> 1000 µM	O=C(Nc1ccccc1)SCCCN1CCN(c2ccc(F)cc2)CC1 [Example 35, N-Phenyl-S-{3-[4-(4-fluorophenyl)piperazin-1-yl]propyl}thiocarbamate dihydrochloride]	
> 1000 µM	O=C(Nc1ccccc1)SCCCN1CCN(CCc2ccccc2)CC1 [Example 24, N-Phenyl-S-[3-(4-phenethylpiperazin-1-yl)propyl]thiocarbamate dihydrochloride monohydrate]	
> 1000 µM	Cc1ccc(CN2CCN(CCCSC(=O)Nc3ccccc3)CC2)cc1 [Example 18, N-Phenyl-S-{3-[4-(4-methylbenzyl)piperazin-1-yl]propyl}thiocarbamate dihydrochloride sesquihydrate]	

Source: patent publication US4618677A, “Substituted phenylalkyl-(piperazinyl or homopiperazinyl)alkyl-thiols and -thiocarbamates useful for the treatment of immunological, inflammatory, and allergic disorders” (Boehringer Ingelheim Limited, priority 1984, dated 1986)
